Measurements: PubChem BioAssay (NCI)
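Dose response: 5 concentrations. Exposure: 48 h. Format: 96-well plates. Endpoint: linear interpolation; highest concentration if not reached. GI50: concentration for 50% inhibition of growth. TGI marks complete inhibition of growth.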

Experiments:
Assay in all cases: DTP human tumour cell line panel, 48 h
A549 NSCLC = tested on: A549 NSCLC
COLO 205 colon = tested on: COLO 205 colon
HCC-2998 colon = tested on: HCC-2998 colon
KM12 colon = tested on: KM12 colon
OVCAR-4 ovarian = tested on: OVCAR-4 ovarian
SF-539 CNS = tested on: SF-539 CNS
SK-OV-3 ovarian = tested on: SK-OV-3 ovarian
SNB-75 CNS = tested on: SNB-75 CNS
SW-620 colon = tested on: SW-620 colon
UACC-62 melanoma = tested on: UACC-62 melanoma

SMILES	GI50 (A549 NSCLC) [µM]	TGI (A549 NSCLC) [µM]	GI50 (COLO 205 colon) [µM]	TGI (COLO 205 colon) [µM]	GI50 (HCC-2998 colon) [µM]	TGI (HCC-2998 colon) [µM]	GI50 (KM12 colon) [µM]	TGI (KM12 colon) [µM]	GI50 (OVCAR-4 ovarian) [µM]	TGI (OVCAR-4 ovarian) [µM]	GI50 (SF-539 CNS) [µM]	TGI (SF-539 CNS) [µM]	GI50 (SK-OV-3 ovarian) [µM]	TGI (SK-OV-3 ovarian) [µM]	GI50 (SNB-75 CNS) [µM]	TGI (SNB-75 CNS) [µM]	TGI (SW-620 colon) [µM]	GI50 (UACC-62 melanoma) [µM]	TGI (UACC-62 melanoma) [µM]	GI50 (SW-620 colon) [µM]
CC(C)(C)C#CC1=C(Br)C(=O)OC1	1.3	8.73	31.6	> 100	1.59	3.12	1.32	3.6	1.85	19.6	2.74	11.1	> 100	> 100	37.7	> 100	> 24.9	13.2	> 45.5	
CNC(=O)c1cncc(/C=C/c2ccccc2C)c1	> 25	> 25	> 25	> 25	> 25	> 25	> 25	> 25	> 25	> 25	> 25	> 25	> 25	> 25	> 20.7	> 25	> 25	> 25	> 25	> 25
O=CNc1c(Cl)cc2c(c1Cl)Cc1cc([N+](=O)[O-])ccc1-2	4.55	> 100	4.76	23.7	5.84	39.9	2.51	11.9	6.11	> 100	6.15	> 100	9.92	41.5	2.84	21.5	> 100	3.98	> 100	3.33
C=CCc1c2c(c(OC)c3ccoc13)C(=O)/C(=C/c1ccccc1OC)O2	4.12	> 100	7.64	69.5	2.85	7.85	3.49	22.3	3.34	> 100	5.45	72.8	5.45	35.1	1.44	4.91	> 100	4.14	58.4	4.24
COc1c(CCC[P+](c2ccccc2)(c2ccccc2)c2ccccc2)cc2c(c1OC)OCO2	3.7	38.1	1.21	5.71	2.22	14.6	0.643	7.48	1.59	12.5	2.1	13.7	2.56	8.45	1.3	5.18	11.1	0.569	5.53	1.93
CCCCOc1ccc(NC(N)=Nc2ccc(Cl)cc2)cc1		10.3		0.26		2.64		26.1		17.5		6.52		22.7		15.3	16.1		26	
C[C@H](Nc1ncnc2nc[nH]c12)c1cc2cccc(Cl)c2c(=O)n1-c1ccccc1	24.2	> 100	19.7	> 100	28.4	> 100	27.1	> 100	> 100	> 100	12.5	> 96	10.8	> 100	0.229	55.2	> 100	2.6	> 100	36.5
O=C([O-])c1ccccc1Nc1ccccn1.O=C([O-])c1ccccc1Nc1ccccn1.[Ni+2]	> 100	> 100	> 100	> 100	> 100	> 100	> 100	> 100	> 100	> 100	72.4	> 100	> 100	> 100			> 100	> 100	> 100	> 100
ClCCn1c(CCl)nc2ccc(Cl)cc21	1.76	4.24	1.55	3.07	2.01	3.87	1.91	4.33	1.34	4.71	1.44	2.82	0.305	0.853	1.14	2.41	1.11	0.43	1.59	0.289
COC(=O)[C@]12CC[C@@H](C)[C@H](C)[C@@H]1C1=CC[C@@H]3[C@@]4(C)C[C@@H](OC(C)=O)[C@H](O)[C@@](C)(COC(C)=O)[C@@H]4[C@H](O)C[C@@]3(C)[C@]1(C)CC2	2.21	8.34	1.63	3.2	2.14	4.57	2.65	7.9	3.23	14.2	3.47	13.3	3.27	10.3	2.35	11.7	8.76			2.75
CC1=NCCc2c1[nH]c1cc(O)ccc21		> 100		> 100		> 100		> 100		> 100		> 100		> 100		> 100	> 100		> 100	
COc1cccc(/C=C/C(=O)c2cccc(Nc3nc(Nc4ccccc4)nc(Nc4ccccc4)n3)c2)c1	30.9	> 100	10.5	42.3	7.35	26.2	3.88	18.3	19.5	> 100	15.6	34.4	> 78.5	> 100	11.8	> 94.8	> 48.3	> 100	> 100	3.68
Cc1occc1C(=S)Nc1ccc(Cl)c(COC(C)(C)C)c1		41.8		30.6		32.2		31.7		33.1		31.1		34			33.5		28.6	
COCCN1C2=CCCCC2=Nc2c1nc(N)[nH]c2=O		> 100		> 100		> 100		> 100				> 100		> 100		> 100			> 100	
